Assay results from PubChem BioAssay (NCI).
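Values below derive from 48-hour exposures of cells grown in 96-well plates, with endpoints linearly interpolated between the two concentrations bracketing the appropriate inhibition level. At the TGI there is no net growth.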

Columns and labels:
Experiment in all cases: DTP human tumour cell line panel, 48 h
A498 renal = system: A498 renal
A549 NSCLC = system: A549 NSCLC
BT-549 breast = system: BT-549 breast
COLO 205 colon = system: COLO 205 colon
DU-145 prostate = system: DU-145 prostate
HCC-2998 colon = system: HCC-2998 colon
KM12 colon = system: KM12 colon
MOLT-4 leukemia = system: MOLT-4 leukemia
NCI-H522 lung = system: NCI-H522 lung
PC-3 prostate = system: PC-3 prostate
RPMI-8226 leukemia = system: RPMI-8226 leukemia
SF-268 CNS = system: SF-268 CNS
SF-295 CNS = system: SF-295 CNS
SF-539 CNS = system: SF-539 CNS
T-47D breast = system: T-47D breast
TK-10 renal = system: TK-10 renal
UO-31 renal = system: UO-31 renal
K-562 leukemia = system: K-562 leukemia
SR leukemia = system: SR leukemia
HOP-92 NSCLC = system: HOP-92 NSCLC

SMILES | TGI (A498 renal) [µM] | TGI (A549 NSCLC) [µM] | TGI (BT-549 breast) [µM] | TGI (COLO 205 colon) [µM] | TGI (DU-145 prostate) [µM] | TGI (HCC-2998 colon) [µM] | TGI (KM12 colon) [µM] | TGI (MOLT-4 leukemia) [µM] | TGI (NCI-H522 lung) [µM] | TGI (PC-3 prostate) [µM] | TGI (RPMI-8226 leukemia) [µM] | TGI (SF-268 CNS) [µM] | TGI (SF-295 CNS) [µM] | TGI (SF-539 CNS) [µM] | TGI (T-47D breast) [µM] | TGI (TK-10 renal) [µM] | TGI (UO-31 renal) [µM] | TGI (K-562 leukemia) [µM] | TGI (SR leukemia) [µM] | TGI (HOP-92 NSCLC) [µM]
Cc1nc2ccccc2n1Cc1nnc2n1N=C(c1ccccc1)CS2 | > 100 | > 100 | 80.8 | > 100 | > 100 | 68.1 | > 100 | > 100 | 71.2 | 53.6 | > 100 | > 100 | > 100 | > 100 | 43.5 | > 100 | > 100 |  |  | 
COc1cc2cc(C(=O)N3CC(CCl)c4c3cc(O)c3ccccc43)[nH]c2c(OC)c1OC (configuration not stated) | 0.82 | > 50 | 9.94 |  | > 50 | < 0.005 | > 50 | 0.153 | 0.155 |  | > 50 | 10.8 |  | < 0.005 | > 50 | > 50 | > 50 | > 50 | > 50 | 
O[C@H]1[C@H](O)[C@@H](Cn2nnc(-c3ccccc3)c2-c2ccccc2)OCO[C@@H]1Cn1nnc(-c2ccccc2)c1-c1ccccc1 | 16 | 13.5 | 23.7 | 12.2 | 23.2 | 6.31 | 11.6 | > 30.4 | 21.5 | 8.83 | 5.79 | 25 | 13 | 10.8 | 31.6 | 19 | 17 | > 100 |  | 8.23
O=C1C=C2CC[C@H]3[C@@H]4CC[C@H](Oc5c6ccccc6nc6ccccc56)[C@H]4CC[C@@H]3[C@H]2CC1 |  | > 100 | > 100 | > 100 | > 100 |  | > 100 |  |  | > 100 |  | > 100 | > 100 | > 100 | > 100 | > 100 |  | > 100 |  | 80.3
CC(=O)N(C(C)=O)n1nc2c(n1)C(=O)c1ccccc1C2=O | > 100 | > 100 | > 100 | > 100 | > 100 |  | > 100 | > 100 | > 100 | > 100 | > 100 | > 100 | > 100 | > 100 | > 100 | > 100 | > 100 |  |  | > 100
O=C1Nc2ccccc2/C1=C\c1c(Cl)nc2n1CCS2 | 61.4 | > 100 | 52.8 | 38.5 | > 100 | 35.3 | > 100 | 97.9 | 40.5 | 80.4 | > 100 | 94.8 | 99.6 |  | 91 | 49.9 | > 100 | > 100 |  | > 100
COC(=O)C1=COc2c(n(C)c3ccccc23)-c2ccccc21 | > 100 |  | > 100 | > 100 | > 100 |  | > 100 | > 100 |  | > 100 | > 100 | > 100 | > 100 | > 100 | > 100 | > 100 | > 100 | > 100 | > 100 | 
NC(=S)N/N=C1\CCCCC1C(O)(C(F)(F)Cl)C(F)(F)Cl (configuration not stated) | > 10 | > 10 | > 10 | > 10 | > 10 | > 10 | > 10 | > 10 | > 10 | > 10 | > 10 | > 10 | > 10 | > 10 | > 10 | > 10 |  | > 10 |  | > 10
Cc1c(-c2ccc(O)c(O)c2)oc(=O)c2c(O)cccc12 | 33.1 | > 100 | 44.6 | 30.1 | 47.2 | 22.1 | 24.2 | > 100 | 15.5 | 52.1 | 50 | 50.7 | 42.2 | 48.4 | 15.4 | 67 | 24.4 | 28.1 |  | 58.2
O=S(=O)(O)c1ccccc1N=Nc1ccc(N=Nc2c(O)ccc3ccccc23)c(S(=O)(=O)O)c1 |  | > 100 | > 100 | > 100 | > 100 |  | > 100 | > 100 | > 100 | > 100 | > 100 | > 100 | > 100 |  | > 100 | > 100 | > 100 | > 100 |  | > 100
CCOC(=O)C1=C(C)NC(C)=C(C(=O)OCC)C1c1ccc(C)cc1 | 97.9 | > 100 | > 100 |  | > 100 | > 100 | > 100 | 74.6 | 94.2 | 66 | 85.8 | > 100 | > 100 | 91.4 | > 100 | > 100 | > 100 | > 100 |  | 51.5
